From article PMC7311409, “Crystal structures of SAMHD1 inhibitor complexes reveal the mechanism of water-mediated dNTP hydrolysis” (Nature Communications, 2020)
Like-named read-outs stand apart in the source and are kept apart here.

Experiments:
[1] = biological target: T1, SAMHD1 (Homo sapiens, UniProt Q9Y3Z3); design: wt-SAMHD1(1-626); MDCC-PBP phosphate sensor coupled SAMHD1-Ppx1 assay, competitive inhibition of TTP hydrolysis, global fit; settings: GTP-activated, substrate TTP 0.1-1 mM, pH 8.0, 25 °C; inhibitor
Protocol: To obtain quantitative kinetic parameters for substrate hydrolysis (KM and kcat) and for inhibition by dNMPNPP analogues (Ki) a coupled assay was employed utilising the biosensor MDCC-PBP[90],[91] to measure phosphate release from combined SAMHD1 triphosphohydrolase and S. cerevisiae Ppx1 exopolyphosphatase activity. In a typical experiment, solutions containing wt-SAMHD1(1-626), Ppx1, MDCC-PBP and GTP were incubated for 5 min in assay buffer (20 mM Tris pH 8.0, 150 mM NaCl, 5 mM MgCl2 and 2 mM TCEP) at 25 °C before the reaction was initiated by the addition of nucleotides and nucleotide analogues. The final concentrations were 0.2 µM SAMHD1, 0.01 µM Ppx1, 40 µM MDCC-PBP, 0.2 mM GTP and varying concentrations of dNTP substrates and analogues. The fluorescence intensity was recorded at 430 nm excitation and 465 nm emission over a period of 10–30 min in a Clariostar multiwell plate reader (BMG Labtech). […] Apparent dissociation constants for substrate binding (KM) and catalytic constants (kcat) were then determined by non-linear least-squares fitting using a hyperbolic function in the software package Prism 7 (Graphpad). […] The fitting was performed with a fixed value of KM for GTP-activated TTP hydrolysis, determined previously[35] and only kcat and Ki were allowed to vary. […]
Target sequence in this assay (Q9Y3Z3 whole entry): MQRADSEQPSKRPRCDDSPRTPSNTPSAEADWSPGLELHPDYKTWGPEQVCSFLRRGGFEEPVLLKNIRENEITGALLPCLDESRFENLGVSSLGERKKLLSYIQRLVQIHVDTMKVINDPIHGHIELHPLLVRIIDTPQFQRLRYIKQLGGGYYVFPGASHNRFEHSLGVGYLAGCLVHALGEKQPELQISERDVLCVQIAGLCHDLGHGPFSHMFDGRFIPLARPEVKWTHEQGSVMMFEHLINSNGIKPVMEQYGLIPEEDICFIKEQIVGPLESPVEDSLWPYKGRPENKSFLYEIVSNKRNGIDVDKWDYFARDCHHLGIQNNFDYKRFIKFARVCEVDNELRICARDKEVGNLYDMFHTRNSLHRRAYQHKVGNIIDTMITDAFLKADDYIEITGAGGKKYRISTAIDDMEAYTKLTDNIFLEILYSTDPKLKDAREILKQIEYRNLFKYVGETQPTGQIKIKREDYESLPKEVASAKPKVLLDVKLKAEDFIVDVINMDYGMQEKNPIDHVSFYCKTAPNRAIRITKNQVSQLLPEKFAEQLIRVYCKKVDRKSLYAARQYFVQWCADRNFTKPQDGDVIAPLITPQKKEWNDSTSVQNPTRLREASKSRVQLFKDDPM

[2] = biological target: T1, SAMHD1; test: X-ray co-crystal structure; competitive inhibition in coupled enzyme assay; type: binding; design: residues 109-626 (crystal)
Target sequence in this assay (Q9Y3Z3 109-626): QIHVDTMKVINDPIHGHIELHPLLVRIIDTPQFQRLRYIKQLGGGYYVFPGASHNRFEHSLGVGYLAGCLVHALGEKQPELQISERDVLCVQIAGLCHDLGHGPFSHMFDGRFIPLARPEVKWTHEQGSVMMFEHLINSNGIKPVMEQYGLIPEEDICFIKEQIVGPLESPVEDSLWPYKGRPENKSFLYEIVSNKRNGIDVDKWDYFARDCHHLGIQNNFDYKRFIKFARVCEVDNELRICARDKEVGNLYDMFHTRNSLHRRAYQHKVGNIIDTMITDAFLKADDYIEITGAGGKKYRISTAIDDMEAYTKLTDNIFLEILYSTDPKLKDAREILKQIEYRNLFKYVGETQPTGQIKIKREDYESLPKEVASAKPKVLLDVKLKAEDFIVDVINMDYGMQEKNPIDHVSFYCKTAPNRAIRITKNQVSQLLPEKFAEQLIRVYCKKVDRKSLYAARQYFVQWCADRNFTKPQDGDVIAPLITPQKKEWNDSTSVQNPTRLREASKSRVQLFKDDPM

[3] = biological target: T2, SAMHD1 (Homo sapiens, UniProt Q9Y3Z3, D137N); test: X-ray co-crystal structure; activation of dNTP hydrolysis; type: binding
T2 construct: residues 109-626
T2 sequence (Q9Y3Z3 109-626 D137N): as the sequence (Q9Y3Z3 109-626) above, with D29N counted along it

[4] = biological target: T1, SAMHD1; test: MDCC-PBP/Ppx1 coupled triphosphohydrolase assay, competitive inhibition of TTP hydrolysis, global fit; SEC-MALLS tetramerisation; type: biochemical; design: wt-SAMHD1(1-626)
Target sequence in this assay (Q9Y3Z3 whole entry): as the sequence (Q9Y3Z3 whole entry) above

[5] = biological target: T2, SAMHD1; test: X-ray co-crystal structure; type: binding

Ki [1] [nM]	Ki [4] [nM]	SMILES	also measured
73 ± 3		Nc1ccn([C@H]2C[C@H](O)[C@@H](COP(=O)(O)NP(=O)(O)OP(=O)(O)O)O2)c(=O)n1 [dCMPNPP]	
	52	Nc1nc2c(ncn2[C@H]2C[C@H](O)[C@@H](COP(=O)(O)NP(=O)(O)OP(=O)(O)O)O2)c(=O)[nH]1 [dGMPNPP]	X-ray co-crystal structure [5]: (ii) XTP (AL1) and dGMPNPP (AL2 and active site)

Second part, the compound before the results:

SMILES	Ki [1] [nM]	Ki [4] [nM]	also measured
Cc1cn([C@H]2C[C@H](O)[C@@H](COP(=O)(O)NP(=O)(O)OP(=O)(O)O)O2)c(=O)[nH]c1=O [TMPNPP]	370 ± 20		X-ray co-crystal structure [2]: (ii) GTP (AL1), dATP (AL2) and TMPNPP (active site)
O=c1[nH]c(=O)c2ncn([C@@H]3O[C@H](COP(=O)(O)OP(=O)(O)OP(=O)(O)O)[C@@H](O)[C@H]3O)c2[nH]1 [XTP]			X-ray co-crystal structure; activation of dNTP hydrolysis [3]: D137N-SAMHD1 is activated by xanthosine-5′-triphosphate (XTP) rather than GTP through AL1-binding
Nc1ncnc2c1ncn2[C@H]1C[C@H](O)[C@@H](COP(=O)(O)NP(=O)(O)OP(=O)(O)O)O1 [dAMPNPP]		780	
